Measured values from BindingDB's records for doi:10.1111/cbdd.12744 (Southern Research Institute, 2016).

The compounds below were run against T1, Kinesin-like protein KIF11 [15-368] (Homo sapiens, UniProt P52732) (assay: ADP Hunter Plus Assay). Conditions: pH 7; 25 °C.
T1 construct: 15-368
T1 sequence (P52732 whole entry): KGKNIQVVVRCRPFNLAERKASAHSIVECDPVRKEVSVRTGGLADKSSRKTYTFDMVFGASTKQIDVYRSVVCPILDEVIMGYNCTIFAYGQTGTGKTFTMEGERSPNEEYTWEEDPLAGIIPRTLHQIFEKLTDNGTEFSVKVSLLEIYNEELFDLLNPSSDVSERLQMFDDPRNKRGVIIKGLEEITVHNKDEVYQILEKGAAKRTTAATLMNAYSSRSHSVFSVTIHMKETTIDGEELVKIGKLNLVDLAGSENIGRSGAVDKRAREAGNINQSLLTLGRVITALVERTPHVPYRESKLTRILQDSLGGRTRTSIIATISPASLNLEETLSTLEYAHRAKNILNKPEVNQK
Experimental: Compounds were first tested in triplicates at 100 uM; hit compounds were further tested with a 10-point twofold serial dilution to confirm their activity and determine their IC50 values. S-Trityl-L-cysteine (STLC), a selective Eg5 inhibitor(J. Biol. Chem. 2006, 281:17559-17569; Mol. Cancer Ther. 2004, 3:1079-1090), was used as the control compound. Specifically, 20 uL of 15 mM PIPES (pH 7.0) containing 1 mM MgCl2, 50 nM MT, 20 uM paclitaxel, 200 uM ATP, 5% DMSO, 60 nM Eg5 proteins, and 1:2 serial dilutions of each individual compound starting from 1000 uM were added to each well of a 96-well plate. The plate was incubated at room temperature for 0.5 h, and then, the ADP Hunter Plus reagents were added. The plate was further incubated for 0.5 h and then read for fluorescence (ex.530/em.590) on Synergy 4 (BioTek, Winooski, VT, USA).

IC50 [µM]	SMILES
118	Cc1ccc(C2C(C#N)=C(N)Nc3ncnn32)cc1 (stereo not drawn) [SRI35564]
78.9	FC(F)(F)c1ccc(Nc2ncnc3[nH]ncc23)cc1 [SRI35565]
65	O=C1CC(c2ccccc2)c2c(n3ncnc3[nH]c2=O)N1 (stereo not drawn) [SRI35566]
